Results reported in patent US6297230A, “Cyanoaziridines for treating cancer” (priority 2000, dated 2001).
In brackets after ≈: the same amount, converted by molar mass. Like-named read-outs stand apart in the source and are kept apart here.

What was measured:
[1] = system: A-375 malignant melanoma cells; assay: In vitro antitumor activity, A-375 melanoma; format: cell-based, human
Text: (§1) 1) in vitro tumor cell viability assays using MTT and SRB dye reaction endpoints.
(§2) Sulforhodamine B (SRB) Assay for Adherent Tumor Cells
(§3) Sulforhodamine B (SRB) is a protein binding aminoxanthene dye with two sulfonic acid groups. (Lillie, R. D., H. J. Conn's Biological Stains, 9th Ed., Baltimore; Williams & Wilkins, 1977.) It quantitates whole cell protein content by the intensity of dye staining and relates this to the number of viable cells. […] The SRB assay is used for cells which normally adhere to surfaces (in this case plastic culture flasks or petri dishes) as part of their requirement for growth and division in vitro. The SRB assay is currently used by the National Cancer Institute in the anticancer drug screening program. (Skehan, et al., J Natl Cancer Inst 82:1107-1112, 1990; Rubinstein, et al., J Natl Cancer Inst 82:1113-1118, 1990.) Methodologic comparisons have shown that SRB results are linear for the number of tumor cells over a 100-fold range, and for protein content determined by a modified Lowry method or Standard Bradford (Bradford, M., Anal Biochem 72:248-254, 1976) methods. […] (Lillie, R. D., H. J. Conn's Biological Stains, 9th Ed., Baltimore; Williams & Wilkins, 1977.)
(§4) Cell cultures of 10^3 -10^7 cells growing in 96-well plastic microtiter plates are fixed with 50% trichloroacetic acid (TCA) for 30 minutes at 4° C. The cells are then stained with 0.4% (w/v) sulforhodamine B (SRB) dissolved in 1% acetic acid. Unbound dye is removed by 4 washes with 1% acetic acid, and protein-bound dye is extracted with 10 mM unbuffered Tris® base [tris(hydroxymethyl)aminomethane]. The optical density (OD) of this extracted solution is measured at […] in a microtiter plate ultraviolet absorbance detector. Cell viability is expressed as percent of control by dividing the optical densities and multiplying the result by 100.
(§5) Microculture Tetrazolium (MTT) Assay for Tumor Cells
(§6) Tumors are disaggregated into single cell suspensions using mechanical, hypoosmotic, and/or enzymatic (trypsin) methods. The cells are plated at a concentration of 3-5×10^4 per […] well into plastic 96-well plates. Growth medium containing 5-10% (vol/vol) heat-inactivated fetal bovine serum and penicillin/streptomycin (both […]) are added prior to incubation at 37° C. for 6 days. Afterwards the medium containing the drug is removed, the cells are centrifuged in fresh medium or phosphate-buffered saline (pH 7.4). A tetrazolium dye, […]-2,5-diphenyl tetrazolium (MTT), is then added. (Mossman, T., J Immunol 65:55-63, 1983.) This dye forms a colored formazan product upon activation by mitochondrial reductases in viable cells. Typically, the formazan product is solubilized in acid-propanol or DMSO. The intensity of the color is proportional to viable cell numbers and this is quantitated by spectrophotometric absorbance at 570 nm on a micro ELISA plate reader. The results are calibrated in % control absorbance from untreated tumor cells. (Alley, et al., Cancer Res 48:589-601, 1988.)
(§7) Table 3 gives the potencies of the new aziridine-1-carboxamides in a panel of human and murine tumor cells in culture. The tumor cell lines in this table are selected to represent a range of histological and growth phenotypes. Their characteristics are described below.
4.0 The Human A-375 Malignant Melanoma Cell Line was also developed by Girard, et al. (Girard, et al., J Natl Cancer Inst 51(5):1417-1423, 1973) from a human with advanced melanoma. The modal chromosome number is 67 and it has a low plating (colony forming) efficiency of 0.7% when grown on agar. These cells also form rapidly growing tumors when injected subcutaneously into immunodeficient athymic (nu/nu) mice. (Girard, et al., J Natl Cancer Inst 51(5):1417-1423, 1973.) These cells are also used in the NCI drug screening panel. (Skehan, et al., J Natl Cancer Inst 82:1107-1112, 1990.)

[2] = system: OVCAR-3 ovarian carcinoma cells; assay: In vitro antitumor activity, OVCAR-3 ovarian; format: cell-based, human; conditions: OVCAR3 ovarian
Text: as §1, §2, §3, §4, §5, §6, §7
5.0 Human OVCAR-3 Ovarian Carcinoma was originally isolated by Hamilton, et al. Experimental model systems of ovarian cancer; applications to the design and evaluation of new treatment approaches. Seminar in Onocology, 11:285-298, 1984, from a patient with progressive adenocarcinoma of the ovary. This patient had relapsed after receiving a combination chemotherapy regimen containing cyclophosphamide, doxorubicin and cisplatin. […] It is also one of the standard human tumor cell lines used for screening new anticancer agents at the NCI. (Alley, et al., Cancer Res 48:589-601, 1988.)

[3] = system: L-1210 leukemia cells (sensitive); assay: MTT growth inhibition, sensitive L-1210 leukemia cells; format: cell-based, mouse; conditions: Sensitive L-1210, drug continuously present 8 days
Experimental: as §6, with “1988.) […]” for “1988.)”
Murine L-1210 Leukemia Cells were first described by Law, et al. from a female DBA/2 mouse exposed to topical methylcholanthrene. (Law, et al., J Natl Cancer Inst 10:179-192, 1949.) The cells represent a lymphocytic lineage and are highly tumorigenic in syngeneic DBA/2 mice, producing lethality typically 10-14 days after inoculation. This cell line has been used extensively to characterize the antitumor activity of chemotherapeutic agents. (Goldin, et al., Cancer Res (Cancer Chemotherapy Screening Data IX) 21:27-92, 1961.) The L-1210 cells have a model 40-41 chromosomes and a very high plating efficiency in suspension cultures in vitro.
*Drug continuously present for 8 days; IC50 measured by MTT dye

[4] = Homo sapiens, OVCAR-3, read-out: IC50
[5] = Mus musculus, L1210, 192 h, read-out: IC50

Row | SMILES | IC50 ([1]; Homo sapiens, read-out: IC50) [µg/mL] | IC50 [2, 4] [µg/mL] | IC50 [3, 5] [µg/mL] | IC50 [1] [µg/mL] | IC50 [2] [µg/mL] | IC50 [3] [µg/mL]
1 | CNC(=O)N1CC1C#N (stereo not drawn) [AMP 403, 2-Cyanoaziridine-1-(N-methyl)carboxamide] | 2.1 (≈ 16.8 µM) | 1.7 | 1.1 (≈ 8.79 µM) | – | – | –
2 | N#CC1CN1C(=O)Nc1ccccc1 (stereo not drawn) [AMP 404, 2-Cyanoaziridine-1-(N-phenyl)carboxamide] | 2.1 (≈ 11.2 µM) | 1.3 | 0.2 (≈ 1.07 µM) | – | – | –
3 | CCNC(=O)N1CC1C#N (stereo not drawn) [AMP 406, 2-Cyanoaziridine-1-(N-ethyl)carboxamide] | 5 (≈ 35.9 µM) | 2 | 2 (≈ 14.4 µM) | – | – | –
4 | N#CC1CN1C(=O)Nc1ccc(Cl)cc1Cl (stereo not drawn) [AMP 407, 2-Cyanoaziridine-1-[N-(2,4-dichlorophenyl)]carboxamide] | 2 (≈ 7.81 µM) | 0.6 | 52.3 (≈ 204 µM) | – | – | –
5 | CC(C)(C)NC(=O)N1CC1C#N (stereo not drawn) [AMP 410, 2-Cyanoaziridine-1-(N-t-butyl)carboxamide] | 69.9 (≈ 418 µM) | 31.1 | 22 (≈ 132 µM) | – | – | –
6 | N#CC1CN1C(=O)NCc1ccccc1 (stereo not drawn) [AMP 412, 2-Cyanoaziridine-1-(N-benzyl)carboxamide] | 2.2 (≈ 10.9 µM) | 1 | 0.8 (≈ 3.98 µM) | – | – | –
7 | N#CC1CN1C(=O)NC1CCCCC1 (stereo not drawn) [AMP 413, 2-Cyanoaziridine-1-(N-cyclohexyl)carboxamide] | 6.7 (≈ 34.7 µM) | 5.9 | 1.4 (≈ 7.24 µM) | – | – | –
8 | CCCCNC(=O)N1CC1C#N (stereo not drawn) [AMP 414, 2-Cyanoaziridine-1-(N-butyl)carboxamide] | 2.5 (≈ 15 µM) | 2 | 2 (≈ 12 µM) | – | – | –
9 | N#CC1CN1C(=O)Nc1ccc(F)cc1 (stereo not drawn) [AMP 415, 2-Cyanoaziridine-1-[N-(4-fluorophenyl)]carboxamide] | 0.7 (≈ 3.41 µM) | 1.2 | 1.5 (≈ 7.31 µM) | – | – | –
10 | N#CC1CN1C(=O)Nc1ccc(C(F)(F)F)cc1 (stereo not drawn) [AMP 416, 2-Cyanoaziridine-1-[N-(4-trifluorophenyl)]carboxamide] | 3 (≈ 11.8 µM) | 1.5 | 2 (≈ 7.84 µM) | – | – | –
11 | N#CC1CN1C(=O)Nc1ccc([N+](=O)[O-])cc1 (stereo not drawn) [AMP 417, 2-Cyanoaziridine-1-[N-(4-nitrophenyl)]carboxamide] | 0.9 (≈ 3.88 µM) | 1.5 | 0.6 (≈ 2.58 µM) | – | – | –
12 | CCOC(=O)c1ccc(NC(=O)N2CC2C#N)cc1 (stereo not drawn) [AMP 419, 2-Cyanoaziridine-1-[N-(4-ethoxycarbonylphenyl)]carboxamide] | 2 (≈ 7.71 µM) | 1.5 | 2.5 (≈ 9.64 µM) | – | – | –
13 | CCOC(=O)CNC(=O)N1CC1C#N (stereo not drawn) [AMP 420, 2-Cyanoaziridine-1-[N-(ethoxycarbonyl)methyl]carboxamide] | 10 (≈ 50.7 µM) | 10 | 2.5 (≈ 12.7 µM) | – | – | –
14 | N#CC1CN1C(=O)Nc1cccnc1 (stereo not drawn) [AMP 421, 2-Cyanoaziridine-1-[N-(3-pyridyl)]carboxamide] | 2.3 (≈ 12.2 µM) | 1.9 | 2.3 (≈ 12.2 µM) | – | – | –
15 | N#CC1CN1C(=O)Nc1ccc(S(N)(=O)=O)cc1 (stereo not drawn) [AMP 422, 2-Cyanoaziridine-1-[N-(4-sulfamylphenyl)]carboxamide] | 50 (≈ 188 µM) | 50 | > 10 | – | – | –
16 | N#CC1CN1C(=O)Nc1cccc2ccccc12 (stereo not drawn) [AMP 423, 2-Cyanoaziridine-1-[N-(1-naphthyl)]carboxamide] | 1 (≈ 4.21 µM) | 1.4 | 1.7 (≈ 7.17 µM) | – | – | –
17 | CC(=O)Oc1ccccc1NC(=O)N1CC1C#N (stereo not drawn) [AMP 424, 2-Cyanoaziridine-1-[N-(2-acetoxyphenyl)]carboxamide] | – | – | – | > 10 | > 10 | > 10
18 | CC(=O)c1cccc(NC(=O)N2CC2C#N)c1 (stereo not drawn) [AMP 425, 2-Cyanoaziridine-1-[N-(3-acetylphenyl)]carboxamide] | 1.8 (≈ 7.85 µM) | 2.23 | 2.2 (≈ 9.6 µM) | – | – | –
